# Laboratory results taken from patent US20220249399A1, “COMPOSITION COMPRISING AN ANTI-OXIDANT TO PRESERVE CORNEAL TISSUE” (University of lowa Research Foundation, priority 2019, published 2022).
# Key:
# [1] = test system: primary cultures of corneal endothelial cells; test: Seahorse XFe96 mitochondrial respiration of primary cultures of corneal endothelial cells; type: cell-based, human; settings: uncomplexed coenzyme Q10 (100 μM) or cyclodextrin alone vs diluent control
# Experimental: (§1) Human corneas were obtained by Iowa Lions Eye Bank (ILEB) from nondiabetic donors 60-75 years old and stored in Optisol GS (Bausch+Lomb, Irvine, Calif.) at 4° C. following procurement in accordance with Eye Bank Association of America and ILEB policies and procedures. Endothelial cells were isolated and cultured in Seahorse XFe96 well plates until they reached confluency. Purity of cell cultures were confirmed with anti-zonula occludens 1 (ZO-1) labeling of cellular tight junctions. Once confluent, cells were treated with different concentrations of cyclodextrin-coenzyme Q10 complex in culture (1 μM, 10 μM, or 100 μM) uncomplexed coenzyme Q10 (100 μM), cyclodextrin alone, or diluent control. Mitochondrial respiration was assayed by measuring oxygen consumption using the Seahorse XFe96 Extracellular Flux Analyzer (Agilent Technologies, Santa Clara, Calif.) over 120 minutes (9-minute intervals). Wells were labeled with a nuclear counterstain (DAPI) and nuclei were counted in each well to normalize respirometry data.
# Seahorse respiration assays were conducted with MitoQ with doses ranging from 0 to 10 μM. All experiments were performed on corneal endothelial cells in culture and analyzed using the XFe96 Extracellular Flux Analyzer.
# as §1, with “MitoQ with doses ranging from 0 to” for “different concentrations of cyclodextrin-coenzyme Q10 complex in culture (1 μM,”, “μM.” for “μM, or 100 μM) uncomplexed coenzyme Q10 (100 μM), cyclodextrin alone, or diluent control.”
# [2] = Dispersibility and solubility in water, solvents and media; type: physicochemical; settings: for solubility in cell culture: cell culture environments (primary cultures)
# Experimental: 50 mg of kneaded complex added to 10 ml H2O and shaken for 2 hours.
# In FIG. 10, the image on the right is 5 mg of CoQ10 added to 10 ml H2O and shaken for 2 hours.
# Paired corneas were supplemented with 10 μM ubiquinol (Fuller et al., 2006) (USP analytical standard, Sigma Aldrich, St. Louis, Mo.), 100 μM palmitate-BSA (Pfleger et al., 2015) (Agilent, Santa Clara, Calif.), or diluent only for 5 days, such that one cornea from a donor received treatment while its mate from the same donor was a control. Concentrations were chosen based on previously published studies (Fuller et al., 2006; Pfleger et al., 2015). Diluents were chosen based on supplement solubility. Although several diluents were tried for ubiquinol (water, Optisol-GS, DMSO and ethanol), ethanol was chosen based on its ability to solubilize ubiquinol most successfully. No complexing agents were used to solubilize ubiquinol. Following the 5 days of storage with supplementation, tissues were processed for metabolic and cell viability assays as described below.
# Due to its long hydrocarbon side chain, ubiquinol is difficult to solubilize in biocompatible solvents. In this series, several attempts were made to bring this lipid-soluble molecule into aqueous solution. First, ubiquinol was attempted to be dissolved using polar […] known to be biocompatible with CECs (Optisol-GS, water) based on the goal of achieving a high bioavailability for clinical applications. […] Next two organic polar […] solvents, DMSO and absolute ethanol, were tested. DMSO commonly is used as a solvent in cell biology and biochemistry, and both DMSO and ethanol can solubilize hydrocarbons. […] In addition to its lipophilicity, native ubiquinol is also unstable. Although not encountered in this series ubiquinol oxidizes in the presence of oxygen and light and turns yellow, indicating the formation of its oxidized form, ubiquinone. It is therefore necessary to improve the solubility and handleability of ubiquinol for future validations of its effects on oxidative stress related pathways.
substance,measurement,setting,value
ubiquinol,mitochondrial spare respiratory capacity,[1],reduces mitochondrial spare respiratory capacity
same,solubility in Optisol-GS storage media after dissolving in ethanol,[2],appeared to remain in solution
same,dispersibility in water,"[2]; 50 mg kneaded complex or 5 mg CoQ10 in 10 ml H2O, shaken for 2 hours",prefers to accumulate at the air-water interface or to adhere to the glass container
same,solubility in cell culture,[2],precipitated out of solution
same,solubility in cell culture,[2]; listed as coQ10,not soluble
same,solubility in DMSO,[2]; despite heating the solution,precipitated in DMSO
same,"solubility in Optisol-GS, water",[2]; even after heating,precipitated out of these solutions
same,solubility in absolute ethanol,"[2]; heated to 37° C., precipitates if not poured immediately into storage media",dissolved
